Test results published in patent publication US5461061A, “Centrally acting 6,7,8,9-tetrahydro-3H-benz(E)indole heterocyclics” (priority 1993, dated 1995).
pIC50: −log10 of the molar value. Counter-ions that a name gives are not always drawn. Like-named read-outs stand apart in the source and are kept apart here.

Experiments:
5-HT1A sites = conditions: 3H-8-OH-DPAT, rat brain homogenates; cited from earlier work
5-HT1A = conditions: cited from earlier work
[1] = test system: motor activity / gross behavior (DA or 5-HT behavioral syndrome); test: Motor activity and gross behavior in reserpine-pretreated rats; type: in vivo, rat
From the text: Antagonism of the reserpine-induced "neuroleptic syndrome" in the rat (gross behavior)
Depletion of the monoamine stores with reserpine brings about a "neuroleptic syndrome" characterized by hypomotility, catalepsy, muscle rigidity, hunch-backed posture as well as a number of other central and peripheral signs of monoamine depletion. The whole or parts of this syndrome can be reversed by the administration of drugs that stimulate dopamine or 5-HT receptors directly or indirectly.
Stimulation of the dopamine receptors, with apomorphine for example, gives rise to both locomotion and stereotyped behavior such as sniffing, gnawing and jumping. On the other hand, stimulation of the 5-HT receptors, with 5-hydroxytryptophan (5-HTP) combined with MAO-inhibitors for example, gives rise to a very different behavior.
(§1) Rats (150-300 g) pretreated with reserpine (5 mg/kg, 18 hours before) were given the test compounds. Gross behavioral observations (changes in motility, hindleg abduction, etc.) were made. Subsequent administration of NSD 1015, decapitation, brain dissection (corpora striata, the limbic forebrain and the remaining hemispheral portions (mainly cortex) or rat brain), homogenization, centrifugation, ion-exchange chromatography and spectrofluorimetric measurements (all as described in detail by Wikstrom, et al., M. Med. Chem., 21, 864-867, 1978 and reference cited therein), or by HPLC/EC, gave the actual […] and 5-HTP levels. Several doses (n=4-6) were tested for each compound and brain area. The dose of a compound giving 50% of the maximal reduction of the 5-HTP level in the rat brain part was then estimated.
(§2) "+" indicates a motoric activation of the animals.

[2] = test system: central dopamine receptor (DOPA accumulation in the striatum); test: In vivo rat brain tyrosine hydroxylation (DOPA accumulation, striatum) after reserpine pretreatment and NSD 1015; conditions: sc, reserpine-pretreated rats, bracket = highest dose tested, read-out: Dopa ED50 (stri)
Description: (§3) In vivo determination of a rat brain tyrosine and tryptophan hydroxylation after reserpine pretreatment (biochemically monitored dopamine and 5-HT receptor activity).
(§4) The compounds under evaluation were tested biochemically for central dopamine and 5-HT receptor (pre- and/or post-synaptic) stimulating activity. The concept of this biochemical screening method is that a dopamine or 5-HT-receptor agonist will stimulate the receptor and through regulatory feedback systems effect a decline in tyrosine or tryptophan hydroxylating activity, respectively, and a subsequent reduction in the synthesis rate for dopamine and 5-HT in the presynaptic neuron. Dopa and 5-HTP formation, as determined after in vivo inhibition of the aromatic L-amino acid decarboxylase with NSD 1015 (3-hydroxybenzylhydrazine hydrochloride) are taken as indirect measures of dopamine and 5-HT synthesis rates, respectively as described by Wikstrom et al., J. Med. Chem., 27, 1030, 1984.
Rats (150-300 g) pretreated with reserpine (5 mg/kg, 18 hours before) were given the test compounds. Gross behavioral observations (changes in motility, hindleg abduction, etc.) were made. […]

[3] = test system: central 5-HT receptor (5-HTP accumulation in the limbic forebrain); test: In vivo rat brain tryptophan hydroxylation (5-HTP accumulation, limbic forebrain) after reserpine pretreatment and NSD 1015; conditions: reserpine-pretreated rats, read-out: 5-HTP ED50 (limb)
Description: as §3, §4, §1, §2

[4] = Blood pressure, heart rate and rectal temperature in awake spontaneously hypertensive rats (SHR); type: in vivo, rat (spontaneously hypertensive; conditions: for Δtemp max: rectal; for bioavailability: rat, in vivo
Description: (§5) The male spontaneously hypertensive rats (SHR), or normotensive Sprague-Dawley rats # were implanted wit catheters in the arteria carotis and vena jugularis. The blood pressure (BP), heart rate (HR) and rectal temperature were recorded 24 hours later in the awake rat after per oral (p.o.) or intravenous *i.v.) administration of test drugs. Recording time was at least 90 minutes. Shown are the maximal effects during the 90 min recording period expressed as the deviation from baseline values (SHR:BP; 174±6 mmHG, HR; 366±10 beats/min, RT; 38.7±0.15 C and normotensives: BP; 111±3 mmHG, HR; 369±15 beats/min, RT; 38.7±0.23 C, means ±SEM, n=7) (means ±SEM, n=3-4). In case of a biphasic response (heart rate) during the 90 min, both maximal and minimal levels are shown period. The bioavailability calculations were based on the areas under the curves after po and iv administration.
(§6) *denotes statistical significant difference (p<0.05, or less) compared to saline treated controls (ANOVA followed by Fischer's test).

[5] = molecular target: noradrenaline (NA) (α2) receptor; test: In vitro binding, brain noradrenaline alpha2 receptor sites; parameters: species or system rat; conditions: non-pretreated rats
[6] = Blood pressure, heart rate and rectal temperature in awake normotensive rats (#); type: in vivo, rat (normotensive Sprague-Dawley); conditions: 0.2 μmol/kg i.v.
Description: as §5, §6

central DA receptor = conditions: cited from earlier work
dopamine receptors = conditions: cited from earlier work
[7] = Stability remark on isolated product; type: physicochemical
[8] = sc, bracket = highest dose tested
[9] = 2.0 μmol/kg i.v., (±) 13a / (±) 13b
[10] = 2.0 μmol/kg i.v., second printed (±) 13a line (biphasic, maximal level) / first printed (±) 13b line
[11] = 10.0 μmol/kg i.v., first printed (±) 13a line, no # printed
[12] = 10.0 μmol/kg i.v., second printed (±) 13a line
[13] = 10.0 μmol/kg p.o., (±) 13a (biphasic, maximal level) / first printed (±) 13b line
[14] = 10.0 μmol/kg p.o., (±) 13a / first (±) 13b

CN(C)C1CCc2ccc3[nH]ccc3c2C1 (racemic) [6,7,8,9-tetrahydro-N,N-dimethyl-3H-benz(e)indole-8-amine]
5-HT1A binding affinity (5-HT1A sites): high affinity | 5-HT1A agonist properties in vivo (5-HT1A): exhibits 5-HT1A agonist properties in vivo

CCCN(CCC)C1CCc2ccc3[nH]ccc3c2C1 (racemic) [(±)-12b, 6,7,8,9-tetrahydro-N,N-dipropyl-3H-benz(e)indole-8-amine]
Mot. act. (+/-) ([1]; sc): DA + 5-HT | ED50 [2]: 0.28 µmol/kg | ED50 [3, 8]: 0.1 µmol/kg

CN(C)C1CCc2ccc3[nH]cc(C=O)c3c2C1 (racemic) [(±)-13a, 1-Formyl-6,7,8,9-tetrahydro-N,N-dimethyl-3H-benz(e)indole-8-amine]
Mot. act. (+/-) ([1]; po): (+)5-HT | Mot. act. (+/-) ([1]; sc): (+)5-HT | ΔBP max ([4]; 2.0 μmol/kg i.v., (±) 13a): -12 ± 4 mm Hg | ΔHR max ([4]; 2.0 μmol/kg i.v., (±) 13a): +35 ± 34 beats/min | ΔHR max (minimal level of biphasic response) ([4]; 2.0 μmol/kg i.v., (±) 13a): -33 ± 23 beats/min | duration ΔBP [4, 9]: 150 min | ΔBP max [4, 9]: -60 ± 5 mm Hg | Δtemp max [4, 9]: -0.2 ± 0.65 °C | Δtemp max ([4]; 2.0 μmol/kg i.v., (±) 13a): -0.2 ± 0.40 °C | ΔHR max [4, 10]: +55 ± 14 beats/min | ΔBP max ([4]; 2.0 μmol/kg p.o.): -23 ± 2 mm Hg | ΔHR max ([4]; 2.0 μmol/kg p.o.): +37 ± 44 beats/min | Δtemp max ([4]; 2.0 μmol/kg p.o.): +1.2 ± 0 °C | ΔHR max ([4]; 10.0 μmol/kg i.v., (±) 13a, biphasic, maximal level): +87 ± 18 beats/min | ΔBP max [4, 11]: -3 ± 1 mm Hg | ΔHR max [4, 11]: +70 ± 47 beats/min | Δtemp max [4, 11]: -1.0 ± 0.15 °C | duration ΔBP [4, 12]: > 90 min | ΔBP max [4, 12]: -57 ± 4 mm Hg | ΔHR max (minimal level of biphasic response) [4, 12]: -37 ± 3 beats/min | Δtemp max [4, 12]: -0.7 ± 0.33 °C | ΔHR max (minimal level of biphasic response) ([4]; 10.0 μmol/kg p.o.): -39 ± 18 beats/min | ΔHR max [4, 13]: +24 ± 43 beats/min | duration ΔBP [4, 14]: 75 min | ΔBP max [4, 14]: -43 ± 22 mm Hg | Δtemp max [4, 14]: +0.7 ± 0.32 °C | bioavailability ([4]; 10 umol/kg, 10.0 μmol/kg p.o., from areas under the curves after po and iv administration, read-out: Bioavail): 48% | ED50 ([3]; po): 7 µmol/kg | ED50 [3, 8]: 4 µmol/kg

CCCN(CCC)C1CCc2ccc3[nH]cc(C=O)c3c2C1 (racemic) [(±)-13b, 1-formyl-6,7,8,9-tetrahydro-N,N-dipropyl-3H-benz(e)indole-8-amine]
Mot. act. (+/-) ([1]; sc): +5-HT | duration ΔBP [4, 9]: 90 min | ΔBP max [4, 9]: -35 ± 3 mm Hg | Δtemp max [4, 9]: -1.5 ± 0.3 °C | ΔBP max ([4]; 2.0 μmol/kg i.v., (±) 13b): +14 ± 1 mm Hg | ΔHR max ([4]; 2.0 μmol/kg i.v., (±) 13b): -70 ± 15 beats/min | Δtemp max ([4]; 2.0 μmol/kg i.v., (±) 13b): -1.6 ± 0.2 °C | ΔHR max [4, 10]: +110 ± 10 beats/min | ΔHR max [4, 13]: +78 ± 11 beats/min | duration ΔBP [4, 14]: > 120 min | ΔBP max [4, 14]: -55 ± 5 mm Hg | Δtemp max [4, 14]: -1.0 ± 0.3 °C | duration ΔBP ([4]; 10.0 μmol/kg p.o., (±) 13b): 60 min | ΔBP max ([4]; 10.0 μmol/kg p.o., (±) 13b): +28 ± 6 mm Hg | ΔHR max ([4]; 10.0 μmol/kg p.o., (±) 13b): +70 ± 30 beats/min | Δtemp max ([4]; 10.0 μmol/kg p.o., (±) 13b): -0.8 ± 0.4 °C | bioavailability ([4]; po): 36% | pIC50 [5]: 5.43 | ED50 [3, 8]: 0.06 µmol/kg

CCCN(CCC)C1COc2ccc3[nH]ccc3c2C1 (racemic) [(±)-21, 8-N,N-dipropylamino-8,9-dihydro-2H-pyrano-(3,2-e)-indol]
Mot. act. (+/-) ([1]; sc): +DA | ED50 [2]: 1 µmol/kg | ED50 [3, 8]: 3.1 µmol/kg

CCCN(CCC)C1COc2ccc3[nH]cc(C=O)c3c2C1 (racemic) [(±)-22, 1-formyl-8-N,N-dipropylamino-8,9-dihydro-2H-pyrano-(3,2-e)indole]
Mot. act. (+/-) ([1]; sc): +5-HT | ED50 [3, 8]: 0.4 µmol/kg

CCCN(CCC)C1CCc2cccc(O)c2C1 (racemic) [Compound 8-OH-DPAT, reference compound]
Mot. act. (+/-) ([1]; sc): ++5-HT | ΔBP max [6]: -12 ± 6 mm Hg | ΔHR max [6]: -83 ± 16 beats/min | Δtemp max ([6]; rectal): -1.5 ± 0.27 °C | ED50 ([3]; po): 3 µmol/kg | ED50 [3, 8]: 0.048 µmol/kg

CCCN(CCC)C1CCc2cc3cc[nH]c3cc2C1 (stereo not drawn) [5,6,7,8-N,N-di-n-propyl-1H-benz(f)indole-7-amine]
dopaminergic activity (central DA receptor): dopaminergically inactive

CN(C)[C@@H]1CCc2ccc3[nH]cc(C=O)c3c2C1 [(+)-13a, (+)-1-formyl-6,7,8,9-tetrahydro-N,N-dimethyl-3H-benz(e) indole-8-amine]
Mot. act. (+/-) ([1]; sc): +5-HT | pIC50 [5]: 6.85 | ED50 [3, 8]: 1 µmol/kg

O=C1CC2(CCCC2)CC(=O)N1CCCCN1CCN(c2ncccn2)CC1 [Buspirone hydrochloride]
dopamine receptor antagonism (dopamine receptors): antagonizes dopamine receptors at the same dose it stimulates 5-HT1A receptors

CN(C)C1CCc2ccc3[nH]cc(Br)c3c2C1 (stereo not drawn) [Example 12, 1-Bromo-6,7,8,9-tetrahydro-N,N-dimethyl-8-amino-3H-benz[e]indole]
stability of the product [7]: unstable

CN(C)[C@@H]1CCc2ccc3[nH]ccc3c2C1 [R-6,7,8,9-tetrahydro-N,N-dimethyl-3H-benz(e)indole-8-amine]
5-HT1A binding affinity (5-HT1A sites): high affinity

CC1(C)CC(=O)N(CCCCN2CCN(c3ncccn3)CC2)C(=O)C1 [gepirone]
dopamine receptor antagonism (dopamine receptors): has dopamine antagonist properties
